Measured values published in US11485728B2, “Small molecules for the treatment of autoimmune diseases and cancer” (Athos Therapeutics, Inc., priority 2020, dated 2022).
One block for each molecule: values may come before it.

Legend:
[1] = Formulation visual stability (DMA/PG/PEG 300/water); type: physicochemical; conditions: 25° C., 10-11 mg/mL in DMA/PG/PEG 300/Water
Description: All formulations were conducted with FDA approved excipients and with high purity material such as USP grade quality. Formulation stability of test articles are performed using HPLC purity method described within analytical section. This formula may be used for oral administration of the compounds described herein; […]. Since these compounds have high solubility in lower pH as described in the solubility study section, the intervenous delivery is performed with 100% phosphate buffer solution of pH 6.5 allowing up to 7 mg/mL concentration. The formulated test articles can be store at 4° C. Prior to dosing, it should be warmed and vortexed for about 1 min to make a homogenous solution. If needed, filter through 0.2 μM syringe filter to maintain clean and sterile.

[2] = test system: HT-29 colorectal cancer cells; test: HT-29 cell viability (Real-Time-Glo); type: cell-based; conditions: Homo sapiens, HT-29; 72 hr; read-out: IC50, Cell line: HT-29
Description: Equal volume of 2× RealTime-Glo™ reagent (2 μl of MT Cell Viability Substrate 1,000×, and 2 μl of NanoLuc® Enzyme 1,000×, per 1 ml of media, Promega) was added to each well and cells were incubated at 37° C. Luminescence was evaluated at 72 h.
(§1) To determine the plating density for cell viability assays, for each cell line, cells were counted and diluted to final densities of 2.5, 5, 10 and 20 thousand per 100 μl of their respective growth media per well in 96 well plates. A Promega Real-Time-Glo cell viability kit was used to determine the optimal concentration for cell plating so that each cell line would be within the linear part of its growth curve after 72 hrs in culture. […] Test compounds were then added at different concentrations for the creation of six-point curve and cell density was determined using the Promega Real-Time-Glo cell viability kit after 24, 48, and 72 hrs in culture.
Specifically, the Promega Real-Time-Glo cell viability kit was used to determine the optimal concentration for cell plating so that each cell line would be within the linear part of its growth curve after 72 hrs in culture. […] Test compounds are then added at different concentrations for the creation of six-point curve and cell density is determined using the Promega Real-Time-Glo cell viability kit after 24, 48, and 72 hrs in culture. […]

PAMPA permeability = conditions: PAMPA, 5 hours at RT
Description: Parallel artificial membrane permeability (PAMPA) assay is a non-cell based assay designed to predict in vivo biological membrane permeability of drugs in early stage of drug discovery. […] The Corning Gentest Pre-coated PAMPA plate system was designed by 96-well insert system with a 0.45 μm PVDF (polyvinylidene fluoride) filter plate which has been pre-coated with structured tri-layers of phospholipids (lipid/oil/lipid) and a matched receiver microplate.
Donor solutions of test compounds (300 μL, 20 μM in PBS/MeOH 90:10) were added to each well of the donor plate. 200 μL of PBS/MeOH 90:10 was added to each well of the acceptor plate. The acceptor plate was coupled with the donor plate and incubated for 5 hours at room temperature (RT) without agitation. In each plate, compounds were tested in triplicate. At the end of the incubation, drug concentration in the initial donor solution, acceptor and the donor wells were determined using LC/MS/MS. A five (5) points standard curve from 0.1 to 1000 nM for each test compound were prepared. Analyte samples were diluted to within standard curve concentration with ACN/H2O 50:50 prior analysis.
All samples were analyzed by electrospray ionization (ESI) liquid chromatograph/mass spectrometry (LC/MS) system utilizing Sciex 5500 quadropule ion trap (Qtrap) mass spectrometry with Shidmazu Nexera X2 UHPLC. The LC-MS/MS instrument monitored each of the test compound in the study based of their respective mass-to-charge (m/z) transitions and MS parameters. Chromatographic separation was achieved on Phenomenex Luna C18 column (50×2.0 mm, 3 μm particle size) by using a gradient elution: mobile phase A contains 0.1% formic acid in water and mobile phase B contains 0.1% formic acid in acetonitrile; A/B (99:1) from 0 to 1 minutes; to A/B (1:99) from 1 to 4 minutes; A/B (1:99) from 4 to 8 minutes; to A/B (99:1) from 8 to 8.20 minutes; A/B (99:1) from 8.2 to 9 minutes. The flow rate was 0.4 mL/min and the column temperature was maintained at 35° C. and autosampler temperature at 4° C. For detection, the electrospray ionization operated in the positive mode using multiple reaction monitoring (MRM).
Data acquisition, and peak integrations were obtained by Analyst® Version 1.7.1 (Sciex) operating with Windows® (Microsoft). The standard curve regressions and sample concentrations were generated and calculated by Analyst®. Concentrations in the sample solutions were determined based on the measured peak area ratios from the response of the analyte to the internal standard with reference to the standard calibration curve. All sample calculations were calculated using a linear regression with 1/x^2 weighting (where x is the concentration of given calibration standard level).
Permeability of the test compounds was calculated using the following formula:
The permeability of compounds was evaluated with the parallel artificial membrane permeation assay (PAMPA) as an in vivo model of passive diffusion across a porous filter coated with a lipid/oil/lipid tri-layer artificial membrane. […] Donor solutions of test compounds (300 μL, 20 μM in PBS/MeOH 90:10) were added to each well of the donor plate. 200 μL of PBS/MeOH 90:10 was added to each well of the acceptor plate. The acceptor plate was coupled with the donor plate and incubated for 5 hours at room temperature (RT) without agitation. In each plate, compounds were tested in triplicate. At the end of the incubation, drug concentration in the initial donor solution, acceptor and the donor wells were determined using LC/MS/MS. Permeability of test compounds was calculated based on the formula described in the General Procedures above. The PAMPA permeability classification criteria are categorized into three (3) classes with a high (Pe≥1.5×10−6 cm/s), intermediate (5.5×10−8<Pe<1.5×10−6 cm/s), and low (Pe<5.5×10−8 cm/s) permeability.

[3] = In-vitro half-life in human liver microsomes; type: in vitro ADME; conditions: Human liver microsomes 0.5 mg/mL; 1 μg/mL drug; NRS; read-out: Metabolic Half-life
Description: (§2) In each of the species (human, rat, mouse) of liver matrix to be tested, a working concentration of 2 μg/mL was prepared of each test article from the 0.5 mg/mL DMSO stock solution by adding 3 μL of 0.5 mg/mL test article stock solution to 747 μL of the 1 mg/mL liver matrix. Incubation was performed at 37±2° C. with gentle, continuous mixing in shaking water bath in 2.0 mL-well capacity 96-Deepwell plates (96-DWP). Samples were retrieved in duplicate at the following time points: 0, 5, 10, 15, 30 and 60 minutes. The final mixture contained 1 μg/mL of drug and 0.5 mg/mL of liver matrix. First, 50 μL of test articles in liver matrix was added to the 96-DWP and pre-warmed the mixture in the 96-DWP for 2 minutes in the 37° C. water bath. The enzymatic reaction was started by the addition of 50 μL of the corresponding 2× NADPH regenerating system (NRS) cofactor solution to all sample wells and stopped by the addition of 300 μL of stop solution (acetonitrile containing 10 ng/mL Tolbutamide as an internal standard (I.Std.). The samples were agitated for 10 minutes and then centrifuged for 20 minutes at 4500 rpm. 25 μL of supernatant was diluted with 475 μL acetonitrile containing I. Std. into a new 96-DWPs for LC-MS/MS analysis.
(§3) Half-life calculations were generated and calculated by Graphpad Prism® software. The half-life of test compound was calculated based on the first-order reaction kinetics. The data was transformed to linear regression (y=log(y) where “y” axis represents the % compound remaining at any given time with respect to time 0 minutes; “x” axis represents time in minutes) in order to calculate the half-life.
(§4) A comparison of metabolic stability in time-course incubation experiments in varying species of liver can provide information of pharmacokinetic properties of drugs attributable to species-related differences in hepatic metabolism. The results of these experiments often assist in further applications such as assessing in vitro metabolite profiling and choosing relevant species for toxicology studies based on similarities relative to the metabolic stability to the human profile. For these experiments, the test compound was tested in parallel with a positive control, Dasatinab, in an enzymatic reaction solution of each species (human and rat) of liver microsomes containing a NADPH regenerating system (NRS). The final mixture contained 1 μg/mL of drug and 0.5 mg/mL of liver matrix. Incubations were performed at 37±2° C. with gentle, continuous mixing in shaking water bath in 96-Deep well plates. The stability of the test compound is monitored using fast, specific and sensitive LC/MS/MS analysis.

HCT-116 = HCT-116 cell viability (Real-Time-Glo); type: cell-based; conditions: Homo sapiens, 72 hr, read-out: IC50, Cell line: HCT-116
Description: as §1

[4] = In-vitro half-life in mouse liver microsomes; type: in vitro ADME; conditions: Mouse liver microsomes 0.5 mg/mL; 1 μg/mL drug; NRS; read-out: Metabolic Half-life
Description: as §2, §3, §4

[5] = In-vitro half-life in rat liver microsomes; type: in vitro ADME; conditions: Rat liver microsomes 0.5 mg/mL; 1 μg/mL drug; NRS; read-out: Metabolic Half-life
Description: as §2, §3, §4

[6] = cited from earlier work
mouse = conditions: oral; cited from earlier work

- Appearance ([1]; 30 min): clear
- Appearance ([1]; 1 h): clear
- Appearance ([1]; 5 h): clear
- Appearance ([1]; 24 h): clear
- Appearance ([1]; 7 d): clear
- IC50 [2]: 10 to 20 µM
- Papp at 5 h, 20 μM (PAMPA permeability; PAMPA permeability Classification, 20 μM donor): < 0.055 ×10⁻⁶ cm/s
- Papp at 5 h, 20 μM (PAMPA permeability; Permeability, Pe, 20 μM donor in PBS/MeOH 90:10): 0.00971 ×10⁻⁶ cm/s
- half-life at 1 μg/mL [3]: > 1 h
- IC50 (HCT-116): 5 to 10 µM
- half-life at 1 μg/mL [4]: > 1 h
- half-life at 1 μg/mL [5]: > 1 h
Structure (SMILES): COc1cc2c(NC3CCN(C4CCCCC4)CC3)nc(N3CCCN(C(C)C)CC3)nc2cc1OCCCN1CCCCC1 [Compound 402, reference compound]

Structure (SMILES): O=C(O)Cc1ccccc1Nc1c(Cl)cccc1Cl [Diclofenac]
- permeability of positive control (published) [6]: high permeability

Structure (SMILES): CC(O)CO (centres unmarked) [PG, propylene glycol]
- LD50 (mouse): 22000 mg/kg
